US9206130B2, “Quinoline derivatives as AXL kinase inhibitors” (Max-Planck-Gesellschaft zur Förderung der Wissenschaften …, priority 2008, dated 2015)
Where a name gives a salt, the structure may show the parent alone.

Row | SMILES | melting point
1 | COc1cc2nccc(Oc3ccc(NS(=O)(=O)c4ccccc4)c(F)c3)c2cc1OC | 234 to 235 °C
2 | COc1cc2nccc(Oc3ccc(NS(=O)(=O)c4ccccc4C(F)(F)F)cc3)c2cc1OC | 224 to 227 °C
3 | COc1cc2nccc(Oc3ccc(NS(=O)(=O)c4ccccc4C(F)(F)F)cc3OC)c2cc1OC | 198 to 199 °C
4 | COc1cc2nccc(Oc3ccc(NS(=O)(=O)c4ccccc4C(F)(F)F)cc3C)c2cc1OC | 209 to 211 °C
5 | COc1cc2nccc(Oc3ccc(NS(=O)(=O)c4cccc(F)c4)c(F)c3)c2cc1OC | 233 to 235 °C
6 | COc1cc2nccc(Oc3ccc(NS(=O)(=O)c4cccc(C(F)(F)F)c4)c(F)c3)c2cc1OC | 230 to 231 °C
7 | COc1cc2nccc(Oc3ccc(NS(=O)(=O)c4ccc(F)cc4F)c(F)c3)c2cc1OC | 212 to 214 °C
8 | COc1cc2nccc(Oc3ccc(NS(=O)(=O)c4cc(F)ccc4F)c(F)c3)c2cc1OC | 232 to 234 °C
9 | COc1cc2nccc(Oc3ccc(NS(=O)(=O)c4c(Cl)cccc4Cl)c(F)c3)c2cc1OC | 217 to 218 °C
10 | COc1cc2nccc(Oc3ccc(NS(=O)(=O)c4cc(Cl)ccc4Cl)c(F)c3)c2cc1OC | 228 to 230 °C
11 | COc1cc2nccc(Oc3ccc(NS(=O)(=O)c4ccccc4C(F)(F)F)c(F)c3)c2cc1OC | 237 to 239 °C
12 | COc1cc2nccc(Oc3ccc(NS(=O)(=O)c4ccccc4C)c(F)c3)c2cc1OC | 218 to 220 °C
13 | COc1cc2nccc(Oc3ccc(NS(=O)(=O)c4ccccc4OC(F)(F)F)c(F)c3)c2cc1OC | 204 to 206 °C
14 | COc1cc2nccc(Oc3ccc(NS(=O)(=O)c4ccccc4C(F)(F)F)cc3F)c2cc1OC | 80 to 83 °C
15 | COc1cc2c(Oc3ccc(NS(=O)(=O)c4ccccc4C(F)(F)F)cc3F)ccnc2cc1OCCN1CCOCC1 | 178 to 180 °C
16 | COc1cc2c(Oc3ccc(NS(=O)(=O)c4cc(F)ccc4F)cc3F)ccnc2cc1OCCN1CCOCC1 | 169 to 173 °C
17 | COc1cc2c(Oc3ccc(NS(=O)(=O)c4cc(F)ccc4F)cc3F)ccnc2cc1OCCCN1CCC(C)CC1 | 223 to 225 °C

Row | SMILES | melting point
18 | COc1cc2c(Oc3ccc(NS(=O)(=O)c4ccccc4C(F)(F)F)cc3F)ccnc2cc1OCCCN (as salt: hydrochloride) | 197 to 199 °C
19 | COc1cc2c(Oc3ccc(NS(=O)(=O)c4cccc(-c5ccccc5)c4)cc3F)ccnc2cc1OCCCN (as salt: hydrochloride) [Example D03, Biphenyl-3-sulfonic acid {4-[7-(3-amino-propoxy)-6-methoxy-quinolin-4-yloxy]-3-fluoro-phenyl}-amide hydrochloride] | 198 to 202 °C
20 | COc1cc2c(Oc3ccc(NS(=O)(=O)c4ccccc4OC(F)(F)F)cc3F)ccnc2cc1OCCCN (as salt: hydrochloride) [Example D15, N-{4-[7-(3-Amino-propoxy)-6-methoxy-quinolin-4-yloxy]-3-fluoro-phenyl}-2-trifluoromethoxy-benzenesulfonamide hydrochloride] | 95 to 97 °C
21 | COc1cc2nccc(Oc3ccc(NS(=O)(=O)c4cccc5cccnc45)c(F)c3)c2cc1OC [Example A8, Quinoline-8-sulfonic acid [4-(6,7-dimethoxy-quinolin-4-yloxy)-2-fluoro-phenyl]-amide] | 255 to 257 °C
22 | COc1cc2nccc(Oc3ccc(NS(=O)(=O)c4cccc(OC(F)(F)F)c4)c(F)c3)c2cc1OC [Example A35, N-[4-(6,7-Dimethoxy-quinolin-4-yloxy)-2-fluoro-phenyl]-3-trifluoromethoxy-benzenesulfonamide] | 221 to 223 °C
23 | COc1cc2nccc(Oc3ccc(NS(=O)(=O)c4cc(Br)cc(C(F)(F)F)c4)c(F)c3)c2cc1OC [Example A47, 3-Bromo-N-[4-(6,7-dimethoxy-quinolin-4-yloxy)-2-fluoro-phenyl]-5-trifluoromethyl-benzenesulfonamide] | 214 to 216 °C
24 | COc1cc2nccc(Oc3ccc(NS(=O)(=O)c4ccc(Cl)c(Cl)c4)c(F)c3)c2cc1OC [Example A49, 3,4-Dichloro-N-[4-(6,7-dimethoxy-quinolin-4-yloxy)-2-fluoro-phenyl]-benzenesulfonamide] | 225 to 227 °C
25 | COc1cc2nccc(Oc3ccc(NS(=O)(=O)c4ccc(OCc5c(C)noc5C)cc4)cc3)c2cc1OC [Example A87, N-[4-(6,7-Dimethoxy-quinolin-4-yloxy)-phenyl]-4-(3,5-dimethyl-isoxazol-4-ylmethoxy)-benzenesulfonamide] | 188 to 190 °C
26 | COc1cc2nccc(Oc3ccc(NS(=O)(=O)c4cccc5ccccc45)cc3)c2cc1OC [Example A104, Naphthalene-1-sulfonic acid [4-(6,7-dimethoxy-quinolin-4-yloxy)-phenyl]-amide] | 250 to 253 °C
27 | COc1cc2nccc(Oc3ccc(NS(=O)(=O)c4cc(Cl)c(O)c(Cl)c4)c(C)c3)c2cc1OC [Example A105, 3,5-Dichloro-N-[4-(6,7-dimethoxy-quinolin-4-yloxy)-2-methyl-phenyl]-4-hydroxy-benzenesulfonamide] | 255 to 259 °C
28 | COc1cc2nccc(Oc3ccc(NS(=O)(=O)c4ccc5c(c4)CC(=O)N5C)cc3F)c2cc1OC [Example A125, 1-Methyl-2-oxo-2,3-dihydro-1H-indole-5-sulfonic acid [4-(6,7-dimethoxy-quinolin-4-yloxy)-3-fluoro-phenyl]-amide] | 163 to 165 °C
29 | COc1cc2c(Oc3ccc(NS(=O)(=O)c4ccccc4C(F)(F)F)cc3F)ccnc2cc1OCCCN1CCCC(C)C1 (stereo not drawn) [Example D35, N-(3-Fluoro-4-{6-methoxy-7-[3-(3-methyl-piperidin-1-yl)-propoxy]-quinolin-4-yloxy}phenyl)-2-trifluoromethyl-benzenesulfonamide] | 118 to 121 °C
30 | COc1cc2c(Oc3ccc(NS(=O)(=O)c4cc(F)ccc4F)cc3F)ccnc2cc1OCCCN1CCCC(C)C1 (stereo not drawn) [Example D36, 2,5-Difluoro-N-(3-fluoro-4-{6-methoxy-7-[3-(3-methyl-piperidin-1-yl)-propoxy]-quinolin-4-yloxy}-phenyl)-benzenesulfonamide] | 103 to 107 °C
31 | COc1cc2c(Oc3ccc(NS(=O)(=O)c4cccc(-c5ccccc5)c4)cc3F)ccnc2cc1OCCCN1CCCC(C)C1 (stereo not drawn) [Example D37, Biphenyl-3-sulfonic acid (3-fluoro-4-{6-methoxy-7-[3-(3-methyl-piperidin-1-yl)-propoxy]-quinolin-4-yloxy}-phenyl)-amide] | 190 to 192 °C
32 | COc1cc(S(=O)(=O)Nc2ccc(Oc3ccnc4cc(OCCCN5CCCC(C)C5)c(OC)cc34)c(F)c2)ccc1F (stereo not drawn) [Example D38, 4-Fluoro-N-(3-fluoro-4-{6-methoxy-7-[3-(3-methyl-piperidin-1-yl)-propoxy]-quinolin-4-yloxy}-phenyl)-3-methoxy-benzenesulfonamide] | 98 to 101 °C
33 | COc1cc2c(Oc3ccc(NS(=O)(=O)c4ccccc4C(F)(F)F)cc3F)ccnc2cc1OCCCN1CCOCC1 [Example D39, N-{3-Fluoro-4-[6-methoxy-7-(3-morpholin-4-yl-propoxy)-quinolin-4-yloxy]-phenyl}-2-trifluoromethyl-benzenesulfonamide] | 180 to 181 °C
